What was measured:
[1] = molecular target: T1, Recombinant mouse catalase protein (CAT) (Mus musculus, UniProt P24270); assay: surface plasmon resonance (Biacore T200), steady-state affinity; format: binding
T1 construct: commercial recombinant protein, immobilised on CM5 chip
T1 sequence (P24270 2-527): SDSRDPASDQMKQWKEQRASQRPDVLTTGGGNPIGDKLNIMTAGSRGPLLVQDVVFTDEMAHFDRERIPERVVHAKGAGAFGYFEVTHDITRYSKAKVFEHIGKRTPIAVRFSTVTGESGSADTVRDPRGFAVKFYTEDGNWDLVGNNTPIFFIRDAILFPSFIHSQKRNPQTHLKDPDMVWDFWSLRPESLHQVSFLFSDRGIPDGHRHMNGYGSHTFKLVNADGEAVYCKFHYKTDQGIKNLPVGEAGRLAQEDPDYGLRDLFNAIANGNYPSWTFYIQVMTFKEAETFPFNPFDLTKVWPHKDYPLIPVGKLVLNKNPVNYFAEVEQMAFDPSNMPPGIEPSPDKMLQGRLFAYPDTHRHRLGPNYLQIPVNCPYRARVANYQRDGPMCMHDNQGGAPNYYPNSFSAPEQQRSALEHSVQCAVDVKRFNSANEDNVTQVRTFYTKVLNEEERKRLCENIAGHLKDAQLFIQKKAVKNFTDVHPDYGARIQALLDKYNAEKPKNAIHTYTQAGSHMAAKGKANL

[2] = molecular target: T2, recombinant human CAT protein (Homo sapiens, UniProt P04040); assay: catalase activity kit; format: biochemical; conditions: 20 min preincubation with 1 μM 13-HODE, room temperature not stated
T2 construct: commercial recombinant protein
T2 sequence (P04040 2-527): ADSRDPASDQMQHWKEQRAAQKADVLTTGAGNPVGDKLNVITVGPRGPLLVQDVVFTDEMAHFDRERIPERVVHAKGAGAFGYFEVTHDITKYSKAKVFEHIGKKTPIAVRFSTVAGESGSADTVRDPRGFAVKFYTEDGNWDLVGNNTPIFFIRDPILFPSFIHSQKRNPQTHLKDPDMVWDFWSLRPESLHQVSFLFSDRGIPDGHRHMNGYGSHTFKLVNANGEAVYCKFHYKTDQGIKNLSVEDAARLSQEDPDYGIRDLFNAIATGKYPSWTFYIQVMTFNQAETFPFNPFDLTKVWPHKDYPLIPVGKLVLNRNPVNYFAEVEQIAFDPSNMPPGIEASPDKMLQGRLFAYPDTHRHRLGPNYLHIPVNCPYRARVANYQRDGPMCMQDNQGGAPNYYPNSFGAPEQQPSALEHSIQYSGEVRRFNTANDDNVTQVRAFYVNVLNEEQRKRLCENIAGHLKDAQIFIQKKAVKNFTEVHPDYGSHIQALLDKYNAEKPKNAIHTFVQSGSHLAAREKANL

[3] = molecular target: the molecule itself; assay: cross-linking; primary mouse hepatocytes treated with or without 1 uM 13-HODE for 6 h, then 100 uM DSS crosslinker for 1 h before protein extraction; western blot for CAT tetramer and monomer; monomer to tetramer

CCCCC[C@H](O)/C=C/C=C\CCCCCCCC(=O)O [13(S)-HODE]
Kd [1]: 2420 nM

CCCCCC(O)/C=C/C=C\CCCCCCCC(=O)O (stereo not drawn) [13-HODE]
CAT activity at 1 μM [2]: incubated recombinant CAT protein with 13-HODE and found that it inhibited CAT activity in vitro

B1: Catalase (CAT) (enzyme, UniProt P24270 1-527, looked up)
chain: MSDSRDPASDQMKQWKEQRASQRPDVLTTGGGNPIGDKLNIMTAGSRGPLLVQDVVFTDEMAHFDRERIPERVVHAKGAGAFGYFEVTHDITRYSKAKVFEHIGKRTPIAVRFSTVTGESGSADTVRDPRGFAVKFYTEDGNWDLVGNNTPIFFIRDAILFPSFIHSQKRNPQTHLKDPDMVWDFWSLRPESLHQVSFLFSDRGIPDGHRHMNGYGSHTFKLVNADGEAVYCKFHYKTDQGIKNLPVGEAGRLAQEDPDYGLRDLFNAIANGNYPSWTFYIQVMTFKEAETFPFNPFDLTKVWPHKDYPLIPVGKLVLNKNPVNYFAEVEQMAFDPSNMPPGIEPSPDKMLQGRLFAYPDTHRHRLGPNYLQIPVNCPYRARVANYQRDGPMCMHDNQGGAPNYYPNSFSAPEQQRSALEHSVQCAVDVKRFNSANEDNVTQVRTFYTKVLNEEERKRLCENIAGHLKDAQLFIQKKAVKNFTDVHPDYGARIQALLDKYNAEKPKNAIHTYTQAGSHMAAKGKANL
notes: Catalase, mouse, endogenous in primary hepatocytes of C57BL/6 mice; Detected by western blot as monomer and tetramer after DSS cross-linking; source: endogenous, primary mouse hepatocytes (cross-linked in cells before protein extraction)
stoichiometry N [3]: 4
